Test results reported in ChEMBL document CHEMBL5728888, “Metallo-beta-lactamase inhibitors and methods of use thereof” (2021).

Target: Metallo-beta-lactamase type 2 (Bacteria, UniProt C7C422)
Test: Enzyme Activity: Determination of IC50 : The Class B enzyme activities were measured in the presence of the test inhibitor in a fluorescence assay against a commercially available substrate consisting of a cephalosporin core linking 7-hydroxycoumarin to fluorescein (CCF2-FA). The enzyme (NDM-1, IMP-1 or VIM-1) and the substrate were diluted in 100 mM KH2PO4 buffer (pH 7) containing 0.005% Tween-20 and 10 μM ZnSO4. In the assay, the final concentration of enzyme was 1 pM, 2 pM and 30 pM for NDM-1, IMP-1 and VIM-1, respectively, and the final concentration of CCF2-FA was 1.25 μM. The test inhibitor was dissolved in dimethylsulfoxide and diluted 1:50 in the assay, resulting in a final concentration range of 20 μM to 0.00063 μM. In a 384-well microplate, the test inhibitor was incubated with the metallo-β-lactamase enzyme and the substrate for 2 hours at 25° C. Fluorescence at 460 nm following excitation at 405 nm was measured. The IC50 value was determined from semi-logarithmic plots of enzyme inhibition versus inhibitor concentration, with a curve generated using a 4-parameter fit.

Metallo-beta-lactamase type 2, sequence (C7C422 whole entry): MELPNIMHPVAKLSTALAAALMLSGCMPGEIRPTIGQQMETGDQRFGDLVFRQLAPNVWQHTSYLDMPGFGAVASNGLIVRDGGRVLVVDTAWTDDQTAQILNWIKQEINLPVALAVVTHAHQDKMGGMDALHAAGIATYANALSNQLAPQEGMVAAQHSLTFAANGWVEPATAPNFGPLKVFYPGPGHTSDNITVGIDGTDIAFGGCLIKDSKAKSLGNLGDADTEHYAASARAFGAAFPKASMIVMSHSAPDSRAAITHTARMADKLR

Row | IC50 | Structure (SMILES)
1 | 16.8 nM | NC[C@@H](O)CNS(=O)(=O)c1ccc(N2CC[C@H](CN)C2)c(-c2nn[nH]n2)c1S(N)(=O)=O
2 | 19.2 nM | NCC1CCN(c2ccc(S(=O)(=O)N[C@@H]3CCNC3)c(S(N)(=O)=O)c2-c2nn[nH]n2)CCN1 (stereo partly drawn)

Row | Structure (SMILES) | IC50
3 | NC[C@@H](O)CNS(=O)(=O)c1ccc(Nc2ncc[nH]2)c(-c2nn[nH]n2)c1S(N)(=O)=O | 10.8 nM
